In patent US10316056B2, “Chemical compounds and use thereof for improving muscular quality” (BIOPHYTIS, priority 2014, dated 2019):

What was measured:
MyoD transcripts = assay: Mice subjected to a high-fat diet: MyoD transcripts of the Soleus muscle; format: in vivo, C57BL/6J mice; conditions: 5 mg/kg orally; high-fat diet for 6 weeks; FIG. 5A
Protocol: (§1) The 20E as comparative compound and the compounds according to the invention (Nos. 51 and 93) were administered orally, at a dose of 5 mg/kg of body weight, to 12-week-old C57BL/6J mice subjected to a high-fat diet for 6 weeks. The effect of the compounds on the weight and the amount of proteins of the Soleus muscle and also the transcripts of genes involved in myogenesis were evaluated.
(§2) Myogenesis, which is the process for forming muscle tissues, is controlled by several myogenic transcription factors which act as end effectors of the signaling cascade and produce transcripts involved in the various stages of development. The roles of the transcription factors have been described in various journals (Sabourin and Rudnicki 2000 and Le Grand and Rudnicki 2007). The Pax7 protein (Paired-box protein 7) maintains a population of satellite cells in quiescence and, with Myf5 (Myogenic factor 5), plays a role in the expansion of activated myoblasts. The MyoD protein (Myoblast Determination protein) appears to determine the differentiation potential of activated myoblasts, and cooperates with myogenin and the MEF2 (Myocyte Enhancer Factor 2) protein to control and bring about differentiation. Finally, MRF4 (Muscle-specific Regulatory Factor 4) is required for hypertrophy, even though it probably plays other roles. […]
(§3) The relative differences in gene expression between treatments are expressed as increase or decrease in the number of cycle times [Ct] compared with the control group, the [Ct] value of each gene having been standardized with the beta-actin gene.
(§4) The in vivo study is carried out by evaluating the effect of 20E as comparative compound and of the molecules according to the invention (Nos. 51 and 93) administered orally, at a dose of 5 mg/kg of body weight, to C57BL/6 mice subjected to a high-fat diet for 6 weeks. The effect of the molecules on the weight and the amount of proteins of the Soleus muscle and also the transcripts of genes involved in myogenesis were evaluated.

[1] = rat, in vivo, po; for Cexp (coefficient of exposure): male, Wistar
Protocol: (§5) The pharmacokinetics of the compounds were evaluated orally using male Wistar rats (Charles River). […] The novel compounds according to the invention were administered at a dose of 10 mg/kg of body weight in the form of a mixture of 4 to 6 products. After administration, the blood was sampled from the tail at t=0.25 h, 0.5 h, 1 h, 3 h, 6 h and 8 h. The blood samples were centrifuged and the plasmas removed.

[2] = test system: S6 kinase (S6K1) phosphorylation in C2C12 cells; assay: Phosphorylation of the S6 kinase in C2C12 cells (ELISA pS6K T389), protein synthesis; format: cell-based, mouse; conditions: Mus musculus, C2C12, 2 h; for activity at 10 µM: read-out: Protein synthesis (percentage increase in S6K phosphorylation in muscle cells); for activity: test compounds and 20E reference (10 μM), read-out: S6K1 phosphorylation level
Myf5 gene transcripts = assay: Mice subjected to a high-fat diet: Myf5 transcripts; format: in vivo, C57BL/6J mice; conditions: 5 mg/kg orally; high-fat diet for 6 weeks
Protocol: as §1, §2, §3, §4

myostatin transcript = assay: Mice subjected to a high-fat diet: myostatin transcript of the Soleus muscle; format: in vivo, C57BL/6J mice; conditions: 5 mg/kg orally; high-fat diet for 6 weeks; FIG. 4
Protocol: as §1
In order to carry out the gene expression analysis, the muscle tissues were homogenized in a Trizol solution (500 μl), and the RNAs were extracted and purified using the phenol/chloroform method. An amount of […] of RNA was used as template for the synthesis of the first cDNA strand using oligo (dT)s as primers and the AMV reverse transcriptase enzyme as described by the supplier (Applied Biosystems 4368814). The q-PCRs were then carried out using a 7900HT machine equipped with a rapid system for real-time detection by PCR (Applied Biosystems) and the standard qPCR program (1 cycle of 95° C. for 15 min, 40 cycles of 95° C. for 15 s and 60° C. for 1 min, a 60-95° C. melt curve for the Sybergreen probes). The experiments are carried out in a Sybergreen SYBR master mix (Applied Biosystems) containing the 100 ng cDNA samples and a set of primers which bind to the two different exons and at a final concentration of 200 nM.
as §3, §4

[3] = test system: Soleus muscle of C57BL/6 mice subjected to a high-fat diet; assay: Mice subjected to a high-fat diet: weight and amount of proteins of the Soleus muscle; format: in vivo, C57BL/6J mice; conditions: 5 mg/kg orally; high-fat diet for 6 weeks; compared with the control group; FIG. 3B
Protocol: as §1
The amount of proteins is determined by first lysing the muscles sampled in a 0.1N NaOH solution with the FastPrep technique. The proteins are quantified by means of a colorimetric assay derived from the Lowry method.
as §4

in vivo = conditions: male, Wistar, rat, po, 10 mg/kg
Protocol: as §5

Row | Structure (SMILES) | transcripts of the MyoD gene (MyoD transcripts) | Cexp (coefficient of exposure) [1] | plasma exposure compared with 20E [1] | activity at 10 µM [2] [%] | activity [2] [%] | transcripts of the Myf5 gene (Myf5 gene transcripts) | myostatin expression in the Soleus muscle (myostatin transcript) | amount of proteins of the Soleus muscle [3] | AUC (in vivo) [ng·h/mL] | Cmax (in vivo) [ng/mL] | Tmax (in vivo) [min]
1 | CCSCC(=O)[C@H]1CC[C@@]2(O)C3=CC(=O)[C@@H]4C[C@@H](O)[C@@H](O)C[C@]4(C)C3CC[C@]12C (stereo partly drawn) [Compound 93, (2S,3R,5R,10R,13R,14S,17S)-17-(2-ethylsulfanylacetyl)-2,3,14-trihydroxy-10,13-dimethyl-2,3,4,5,9,11,12,15,16,17-decahydro-1H-cyclopenta[a]phenanthren-6-one] | increase | 10.3 | better plasma exposure | > 130 | 130 to 140 | increase | comparably inhibit | significant increase | 785 | 230 | 30
2 | CCC(CC)C(=O)N(CCOC)C(C)[C@H]1CC[C@@]2(O)C3=CC(=O)[C@@H]4C[C@@H](O)[C@@H](O)C[C@]4(C)C3CC[C@]12C (stereo partly drawn) [Compound 51, 2-ethyl-N-(2-methoxyethyl)-N-[1-[(2S,3R,5R,10R,13R,14S,17S)-2,3,14-trihydroxy-10,13-dimethyl-6-oxo-2,3,4,5,9,11,12,15,16,17-decahydro-1H-cyclopenta[a]phenanthren-17-yl]ethyl]butanamide] | increase | 3.6 | better plasma exposure | 110 to 129 | ~120 | increase | comparably inhibit | – | 273 | 174 | 15
